This passage reports Ki, Inhibitory rate and mortality results from ChEMBL document CHEMBL1136475, “Synthesis and analgesic activity of hydrochlorides and quaternary ammoniums of epibatidine incorporated with amino acid ester” (Bioorg Med Chem Lett, 2003).

The target in data set [1] is Neuronal acetylcholine receptor. Description: Binding affinity towards nicotinic acetylcholine receptor (nAChR). Format: protein-complex assay.
Data set [2] has as its system Mus musculus. The data set is described as follows: In vivo analgesic activity using acetic acid writhing test in mice at a dose of 10 mg/kg by sc administration. Format: functional. The settings on record: route subcutaneous.
The nature of data set [3]: Toxicity in rats was determined by sc administration at a dose of 10 mg/kg. The settings on record: rat, in vivo, read-out: Rate of death. Also on record: dose 10 mg/kg, route subcutaneous. Format: organism-based.
Data set [4] concerns Mus musculus. The data set is described as follows: In vivo analgesic activity using acetic acid writhing test in mice at a dose of 20 mg/kg by sc administration. Format: functional. The conditions noted are these: route subcutaneous.
Data set [5] has as its system Mus musculus. The data set is described as follows: In vivo analgesic activity using acetic acid writhing test in mice at a dose of 5 mg/kg by sc administration. Format: functional. The conditions noted are these: route subcutaneous.
Data set [6] is described as follows: Toxicity in rats was determined by sc administration at a dose of 1 mg/kg. Format: organism-based. Also noted: dose 1 mg/kg, route subcutaneous. The settings on record: rat, in vivo, read-out: Rate of death.
For data set [7], the system named is Mus musculus. Description: In vivo analgesic activity using acetic acid writhing test in mice at a dose of 1 mg/kg by sc administration. Format: functional. The conditions noted are these: route subcutaneous.
A short description of data set [8]: Toxicity in rats was determined by sc administration at a dose of 5 mg/kg. Format: organism-based. Also noted: dose 5 mg/kg, route subcutaneous. The settings on record: rat, in vivo, read-out: Rate of death.
A short description of data set [9]: Toxicity in rats was determined by sc administration at a dose of 20 mg/kg. Format: organism-based. Also noted: dose 20 mg/kg, route subcutaneous. The conditions noted are these: rat, in vivo, read-out: Rate of death.

As to `c1cncc(CN2C3CCC2CC3)c1`, the Ki in [1] was found to be 98 nM.

Regarding `CCOC(=O)CCC(NC(=O)C1C(c2ccc(Cl)nc2)C2CCC1[N+]2(C)Cc1ccccc1)C(=O)OCC.[I-]` (configuration not stated), the Inhibitory rate is reported as 99.3% in the data set with Mus musculus [2] and 1% in the data set with Mus musculus [4]. The mortality in [3] was found to be 80%.

For the compound `CCOC(=O)C1CSCN1C(=O)C1C(c2ccc(Cl)nc2)C2CCC1[N+]2(C)Cc1ccccc1.[I-]` (configuration not stated), the results for the Inhibitory rate in the data set on Mus musculus [5] and in the data set on Mus musculus [7] were 49.8% and 9.1%, respectively. The mortality in [6] and in data set [8] was 0% each time.

Compound `CCOC(=O)CNC(=O)C1C(c2ccc(Cl)nc2)C2CCC1[N+]2(C)Cc1ccccc1.[I-]` (configuration not stated) yielded an Inhibitory rate in the data set with Mus musculus [4] of 66.6%. Besides, the mortality in data set [9] amounted to 0%.

With `C[N+]1(Cc2ccccc2)CCN(C(=O)CCCCCCC(=O)N2CC[N+](C)(Cc3ccccc3)CC2)CC1.[Br-].[Br-]`, in the data set on Mus musculus [4], the Inhibitory rate is 80.3%.

Take `CCOC(=O)CCC(NC(=O)C1C(c2ccc(Cl)nc2)C2CCC1N2Cc1ccccc1)C(=O)OCC.Cl` (configuration not stated): the Inhibitory rate with Mus musculus [4] was 27.1%. The mortality in [9] was determined as 0%.

Compound `CCOC(=O)CNC(=O)C1C(c2ccc(Cl)nc2)C2CCC1N2Cc1ccccc1.Cl` (configuration not stated) gave an Inhibitory rate with Mus musculus [4] of 26.1%. Besides, the mortality in [9] stood at 0%.

Compound `CCOC(=O)C1CSCN1C(=O)C1C(c2ccc(Cl)nc2)C2CCC1N2Cc1ccccc1.Cl` (configuration not stated) returned an Inhibitory rate in the data set on Mus musculus [4] of 12.3%. Besides, the mortality in data set [9] stood at 0%.
